Test results from patent US20020165283A1, “Preservative blends containing quaternary ammonium compounds” (LONZA INC., priority 2001, published 2002).

Test system: S. aureus, P. aeruginosa, and E. coli
Test: Mixed bacterial challenge of preserved anionic protein shampoo samples (plate counts)
Format: cell-based
Method: Each anionic shampoo sample in Table 1 below was tested as follows. A standardized mixed bacterial solution was prepared according to the following procedure. 3 agar stabs of S. aureus (ATCC#6538), P. aeruginosa (ATCC#9027), and E. coli (ATCC #8739) were separately incubated at about 35° C. for about 24 hours. Each stab was then washed with 3 mL of sterile 0.85% saline solution. The washes of the 3 stabs were pooled together to form an organism mixture. The absorbance of the organism mixture at 530 nm was adjusted to about 1.00 by adding saline. The spectrometer was calibrated with a saline blank. A 5 mL aliquot of the organism mixture was mixed together to produce the standardized mixed bacterial solution. Then, 40 g of each shampoo sample was inoculated with 0.2 mL of the standardized mixed bacterial solution and mixed. 1 g of the mixture was added to a sterile 20×150 mm screw cap test tube. 9 mL of sterile D/E neutralizer broth was added to the test tube and mixed to form a 10^−1 dilution,. Serial dilutions were prepared through to a 10^−6 dilution with phosphate buffered water. The serial dilutions were plated onto Tryptic Soy Agar and incubated for 2 days at about 35° C. Bacteria counts were performed after 0 and 14 days.
The anionic protein shampoo composition was comprised of 35% by weight of sodium lauryl ether sulfate; 25% by weight of triethanolamine lauryl sulfate; 3% by weight coconut diethanolamide (cocamide DEA); 1% by weight of hydrolyzed collagen, available as Polypro 5000™ from Hormel Foods of Austin, Minn.; and 36% by weight of deionized water.
The sodium dehydroacetate monohydrate, sodium salicylate, and Hyamine® 1622 shampoo samples were prepared by mixing the appropriate amounts of the preservatives and the aforementioned anionic protein shampoo composition and heating the mixture to about 50° C. for about 15 minutes.
The procedure described in Example 1 was repeated with the anionic shampoos in Table 3 below. The bacterial counts were performed after 0 and 7 days. The dehydroacetic acid (available from Lonza Inc. of Fair Lawn, N.J.) and Hyamine® 1622 shampoo samples were prepared by mixing the appropriate amounts of the preservatives and the anionic protein shampoo composition and heating the mixture to about 50° C. for about 15 minutes.
The procedure described in Example 1 was repeated with the anionic shampoos in Table 5 below. The salicylic acid (available from Spectrum Chemical of New Brunswick, N.J.) and Hyamine® 1622 shampoo samples were prepared by mixing the appropriate amounts of the preservatives and the anionic protein shampoo composition and heating the mixture to about 50° C. for 15 minutes.

[1] = Table 5, 0.2% of preservative alone
[2] = Table 1, 0.5% by weight of preservative alone
[3] = Table 1, 1.0% by weight of preservative alone

## CC(=O)C1C(=O)C=C(C)OC1=O (centres unmarked) [Dehydroacetic Acid, dehydroacetic acid]
Table 3, 0.2% of preservative alone
  S. aureus, P. aeruginosa, and E. coli (cfu/g) Day 0: 2.5 × 10^6 cfu/g
Table 3, 0.2% of preservative alone, Day 7
  S. aureus, P. aeruginosa, and E. Coli (cfu/g) Day 7: 4.4 × 10^4 cfu/g

## O=C(O)c1ccccc1O [Salicylic Acid, salicylic acid]
[1]
  S. aureus, P. aeruginosa, and E. coli (cfu/g) Day 0: 3.1 × 10^6 cfu/g
  S. aureus, P. aeruginosa, and E. coli (cfu/g) Day 14: 6.5 × 10^6 cfu/g

## CC(=O)c1c([O-])cc(C)oc1=O.O.[Na+] [Sodium Dehydroacetate Monohydrate, Sodium dehydroacetate monohydrate]
[2]
  S. aureus, P. aeruginosa, and E. coli (cfu/g) Day 0: 3.0 × 10^6 cfu/g
  S. aureus, P. aeruginosa, and E. coli (cfu/g) Day 14: 4.0 × 10^3 cfu/g

## O=C([O-])c1ccccc1O.[Na+] [Sodium Salicylate, Sodium salicylate]
[3]
  S. aureus, P. aeruginosa, and E. coli (cfu/g) Day 0: 3.0 × 10^6 cfu/g
  S. aureus, P. aeruginosa, and E. coli (cfu/g) Day 14: 5.0 × 10^2 cfu/g
